Series [1] concerns LAPC4 human prostate tumor xenograft. The series can be described thus: LAPC4 xenograft, second experiment (treatment from day after inoculation). The conditions noted are these: 0.15 mmol/kg twice-daily s.c. The class given is in vivo, mouse. An excerpt: The second in vivo experiment tests the ability of 5 to inhibit the growth of LAPC4 prostate cancer cells growing in SCID mice, and 16 (Chart 1), a previously identified potent CYP17 inhibitor/antiandrogen (Gregoriyev et al. and Njar et al., J. Med. Chem., 1998, 41, 902-912, above) and castration are used as reference treatments. In this experiment, treatment begins on the day that mice were inoculated subcutaneously with hormone-dependent LAPC4 cells and are castrated or injected sc twice daily with 5 or 16.
In Vivo Antitumor Studies (LAPC-4 Prostate Cancer Xenografts): All animal studies are performed according to the guidelines and approval of the Animal Care Committee of the University of Maryland School of Medicine, Baltimore. Male severe combined immunodeficient (SCID) mice 4-6 weeks of age purchased from the National Cancer Institute-Frederick Cancer Research and Development Center (Fredrick, Md.) are housed in a pathogen-free environment under controlled conditions of light and humidity and allowed free access to food and water. Tumors are developed from LAPC4 cells inoculated subcutaneously (s.c.) in the mice essentially as previously described (21). LAPC4 cells are grown in IMEM with 15% FBS plus 1% PS and 10 nm DHT until 80% confluent. Cells are scraped into DPBS, collected by centrifugation, and resuspended in Matrigel (10 mg/ml) at 3×10^7 cells/ml. Mice are injected s.c. with 100 μl of the cell suspension at one site on each flank. Tumors are measured weekly with calipers, and tumor volumes are calculated by the formula: […]).
In the second experiment, mice are inoculated with LAPC4 cells and are divided into four groups of 5 mice each. The control and castrated group receiv vehicle, while the other two groups receiv either VN/85-1 (0.15 mmol/kg twice-daily, 9 a.m. and 5 p.m.) or 5 (0.15 mmol/kg twice-daily, 9 a.m. and 5 p.m.). These treatments are initiated one day after LAPC4 cell inoculation; continued for 14 weeks for control group, 19 weeks (for VN/85-1 and castration groups) and for 21 weeks for 5 treated group and tumors are measured and processed as described above.
FIG. 7: The effects of 5, 16, and orchidectomy on the formation and growth of LAPC4 prostate tumors in male SCID mice. 3×10^7 LAPC-4 cells were injected s.c. into the dorsal flank of SCID mice. One group of mice was castrated. The other groups of mice received either vehicle or 5 (0.15 mmol/kg twice-daily) or 16 (0.15 mmol/kg twice-daily). Daily treatment with 5 or 16 was initiated 1 day after cell inoculation. Tumors volumes were measured weekly, and the percentage of change in tumor volume was determined after 16 weeks of treatment * Indicates significant difference of 5 versus control, castration and 16 at week 14 (P 0.00065, 0.05 and 0.0097, respectively). ** Indicates significant difference of 5 versus castration and 16 at week 16 (P=0.047 and 0.0047, respectively). ↓-↓↓: Period of reduced administered dose of 5.

For series [2] the following is noted: male, SCID, mouse, in vivo, 1 h. How it is done: At the end of the experiment, the levels of 5 in the tumors and organs of the 5-treated mice are determined. […] This metabolite has the same retention time as the metabolite observed in the plasma (vide supra). […] The animals in the VN/124-1-treated group are sacrificed 1 h after the last VN/124-1 administration, and tumor, liver and testis are harvested and snap frozen in liquid nitrogen. Tissue samples are homogenized in phosphate buffer (pH=7.4, […]). […] The residue is reconstituted in 100 μL of the HPLC mobile phase, filtered through 0.2 μm Teflon filters and then analyzed by HPLC as described above.

For series [3], the system named is LNCaP mutant AR-mediated transcription. The experiment in a line: Luciferase transactivation assay in LNCaP cells transfected with ARR2-Luc. To be noted: 18 h.
Procedure: Luciferase Transactivation Assay: Transcriptional activation assay is carried out as described previously by Kim et al., above, with minor modifications. […] The pRL-null (Promega) is used as the internal control. […] Luciferase activities are measured in triplicates by using dual luciferase assay system according to the manufacturer's instruction (Promega).
The bars represent the mean light units [counts per second (cps)/unit protein, i.e., relative luciferase activity] in triplicate wells from three separate experiments.

As for `C[C@]12CC[C@H](O)CC1=CC[C@@H]1[C@@H]2CC[C@]2(C)C(n3cnc4ccccc43)=CC[C@@H]12` [Compound 5, 3β-Hydroxy-17-(1H-benzimidazol-1-yl)androsta-5,16-diene], the “increase of tumor volume” value in series [1] (week 14) is on record as 0.5 fold. Moreover, the “reduction of tumor volume versus control mice” value in series [1] (week 14 (b4 prints 50 mg/kg/twice daily)) came out at 93.8%. The “concentration in the s.c. tumors” value in series [2] came out at 39.0±8.4 μg/mg tissue. The “effect on luciferase activity, compound alone” value in series [3] (0.1 and 10.0 μM, without DHT) is “no effect”. Moreover, the “effect on luciferase expression induced by 1.0 nM DHT” value in series [3] (with 1.0 nM DHT) is given as “decreased in a concentration-dependent manner”.
